Measured values taken from patent publication US8552013B2, “Heterocyclic compounds based on N6-substituted adenine, methods of their preparation, their use for preparation of drugs, cosmetic preparations and growth regulators, pharmaceutical preparations, cosmetic preparations and growth regulators containing these compounds” (USTAV Experimentalni Botaniky Akademie Ved Ceske Republiky, priority 2001, dated 2013).

Columns and labels:
[1] = tested on: Triticum aestivum cv. Hereward leaf tips; assay: Retention of chlorophyll in excised wheat leaf tips; assay type: in vivo; conditions: chlorophyll retention at the concentration with highest activity
Description: Seeds of winter wheat, Triticum aestivum cv. Hereward, were washed under running water for 24 hours and then sown on vermiculite soaked with Knop's solution. They were placed in the grown chamber at 25° C. with a 16/8 h light period at 50 μmol.m^−2.s^−1. After 7 days, the first leaf was fully developed and the second leaf had started to grow. A tip section of the first leaf, approximately 35 mm long, was removed from 5 seedlings and trimmed slightly to a combined weight of 100 mg. The basal ends of the five leaf tips were placed in the wells of a microtiter polystyrene plate containing 150 μl of a cytokinin solution each. The entire plate was inserted into a plastic box lined with paper tissues soaked in distilled water to prevent leaf sections from drying out. After a 96 h incubation in the dark at 25° C., the leaves were removed and chlorophyll extracted by heating at 80° C. for 10 min in 5 ml of 80% ethanol (v/v). The sample volume was then restored to 5 ml by the addition of 80% ethanol (v/v). The absorbency of the extract was recorded at 665 nm. In addition, chlorophyll extracts from fresh leaves and leaf tips incubated in deionised water were measured. From the obtained data, the concentration with highest activity was selected for each compound tested. Relative activity of the compound at this concentration was calculated (Tab. 6). The activity obtained for 10^−4 M 6-benzylaminopurine (BAP) was postulated as 100%. The values shown are means of five replicates and the whole experiment was repeated twice. The cytokinins to be tested were dissolved in dimethylsulfoxide (DMSO) and the solution brought up to 10^−3M with distilled water. This stock was further diluted in distilled water to concentrations ranging from 10^−8M to 10^−4M.

[2] = tested on: human diploid fibroblasts (HCA cells); assay: Senescence, beta-galactosidase staining of human diploid fibroblasts; assay type: cell-based; conditions: for SENESCENT CELLS (%) HCA25: passage 25; for SENESCENT CELLS (%) HCA45: passage 45; for SENESCENT CELLS (%) HCA80: passage 80
Description: In this example, human diploid fibroblasts (HCA cells of various passage levels: passage 25—designated HCA25; passage 45—designated HCA45; passage 80—designated HCA80) were stained for β-galactosidase activity. The medium used for cell cultivation was removed, the cells were washed twice in […], and fixed in 2-3 ml of fixing solution comprised of a 2% formaldehyde and 0.2% glutaraldehyde in PBS. The cells were incubated at room temperature for 5 minutes, then washed twice with PBS. The cells were subsequently incubated at 37° C. (without CO2) for 1 to 16 hours in 2-3 ml of a solution comprising potassium ferricyanide (5 mM), potassium ferrocyanide (5 mM), MgCl2 (2 mM), X-gal (5-bromo-4-chloro-3-indolyl-β-D-galactopyranoside) (1 mg/ml), in citric/phosphate buffer, pH 6.0). […] In this experiment, senescent cells, but not other cells were stained blue due to the action of β-galactosidase on the substrate (FIG. 4).

[3] = tested on: tobacco callus Nicotiana tabacum L. cv. Wisconsin 38; assay: Cytokinin-dependent tobacco callus growth; assay type: cell-based; conditions: fresh callus weight at the concentration with highest activity
Description: Cytokinin-dependent tobacco callus Nicotiana tabacum L. cv. Wisconsin 38 was maintained at 25° C. in darkness on modified Murashige-Skoog medium, containing per 1 liter: 4 μmol nicotinic acid, 2.4 μmol pyridoxine hydrochloride, 1.2 μmol thiamine, 26.6 μmol glycine, 1.37 μmol glutamine, 1.8 μmol myo-inositol, 30 g of sucrose, 8 g of agar, 5.37 μmol α-naphtylacetic acid (NAA) and 0.5 μmol benzylaminopurine (BAP). Subcultivation was carried out every three weeks. Fourteen days before the bioassay, the callus tissue was transferred to the media without 6-benzylaminopurine (BAP). Biological activity was determined from the increase in fresh callus weight after four weeks of cultivation. Five replicates were prepared for each cytokinin concentration and the entire test was repeated twice. From the obtained data, the concentration with highest activity was selected for each compound tested. Relative activity of the compound at this concentration was calculated (Tab. 6). The activity obtained for 10^−4 M 6-benzylaminopurine (BAP) was postulated as 100%. The cytokinins to be tested were dissolved in dimethylsulfoxide (DMSO) and the solution brought up to 10^−3M with distilled water. This stock was further diluted in the respective media used for the biotest to concentrations ranging from 10^−8M to 10^−4M.

[4] = tested on: Amaranthus caudatus cotyledon/hypocotyl explants; assay: Amaranthus bioassay, betacyanin content; assay type: in vivo; conditions: betacyanin content at the concentration with highest activity
Description: Standard Amaranthus bioassay was performed with several modifications. The seeds of Amaranthus caudatus var. atropurpurea were surface-sterilised in 10% N-chlorobenzenesulfonamide (w/v) for 10 min and washed 5 times in deionized water. They were placed in 14 cm Petri dishes containing paper tissues saturated with deionized water. After 72 h of cultivation at 25° C. in darkness, the roots of the seedlings were cut off. The explants, consisting of two cotyledons and hypocotyls, were placed in 5 cm Petri dishes on two layers of filter paper soaked in 1 ml of incubation medium containing 10 μmol NA2HPO4-KH2PO4, pH 6.8, 5 μmol tyrosine and the cytokinin to be tested. There were 20 explants per dish. The procedure was carried out under a green safe light in a darkroom. After a 48 h of incubation at 25° C. in darkness, betacyanin was extracted by freezing the explants in 4 ml […] acetic acid. The concentration of betacyanin was determined by comparing the absorbance at 537 nm and 620 nm as follows: ΔA=[…] nm-A620 nm. From the obtained data, the concentration with highest activity was selected for each compound tested. Relative activity of the compound at this concentration was calculated (Tab. 6). […] The values shown in table 8 are means of five replicates and the entire test was repeated twice. The cytokinins to be tested were dissolved in dimethylsulfoxide (DMSO) and the solution brought up to 10^-3M with distilled water. This stock was further diluted in the respective media used for the biotest to concentrations ranging from 10^-8M to 10^-4M.

SMILES: CSc1nc(NCc2cccc(O)c2)c2[nH]cnc2n1 [2-methylthio-6-(3-hydroxybenzylamino)purine]
- Activity (%) [10^−4 mol · l^−1 BAP = 100%] [1]: 50.5 (±23.5) %

SMILES: CC(=O)Oc1cccc(CNc2ncnc3nc[nH]c23)c1 [3-acetoxybenzylamino, 6-(3-acetoxybenzylamino)purine]
- SENESCENT CELLS (%) HCA25 [2]: 4%
- SENESCENT CELLS (%) HCA45 [2]: 6%
- SENESCENT CELLS (%) HCA80 [2]: 27%

SMILES: CC(=O)c1cccc(CNc2ncnc3nc[nH]c23)c1 [3-acetylbenzylamino, 6-(3-acetylbenzylamino)purine]
- SENESCENT CELLS (%) HCA25 [2]: 5%
- SENESCENT CELLS (%) HCA45 [2]: 5%
- SENESCENT CELLS (%) HCA80 [2]: 28%

SMILES: Nc1cc(CNc2ncnc3nc[nH]c23)ccc1Cl [3-amino-4-chlorobenzylamine, 6-(3-amino-4-chlorobenzylamino)purine]
- SENESCENT CELLS (%) HCA25 [2]: 5%
- SENESCENT CELLS (%) HCA45 [2]: 5%
- SENESCENT CELLS (%) HCA80 [2]: 22%

SMILES: O=C(O)c1cc(Nc2ncnc3nc[nH]c23)ccc1O [3-carboxy-4-hydroxyanilino, 6-(3-carboxy-4-hydroxyanilino)purine]
- SENESCENT CELLS (%) HCA25 [2]: 4%
- SENESCENT CELLS (%) HCA45 [2]: 2%
- SENESCENT CELLS (%) HCA80 [2]: 26%

SMILES: O=C(O)c1ccc(Nc2ncnc3nc[nH]c23)cc1Cl [3-chloro-4-carboxyanilino, 6-(3-chloro-4-carboxyanilino)purine]
- SENESCENT CELLS (%) HCA25 [2]: 5%
- SENESCENT CELLS (%) HCA45 [2]: 2%
- SENESCENT CELLS (%) HCA80 [2]: 25%

SMILES: COc1cccc(CNc2ncnc3nc[nH]c23)c1OC [6-(2,3-dimethoxybenzylamino)purine]
- Activity (%) [10^−4 mol · l^−1 BAP = 100%] [1]: 109 (±5) %
- Activity (%) [10^−4 mol · l^−1 BAP = 100%] [3]: 8.5 (±2) %
- activity (%) [10^−5 mol · l^−1 BAP = 100%] [4]: 22 (±3) %

SMILES: Clc1ccc(CNc2ncnc3nc[nH]c23)c(Cl)c1 [6-(2,4-dichlorobenzylamino)purine]
- Activity (%) [10^−4 mol · l^−1 BAP = 100%] [1]: 0%
- Activity (%) [10^−4 mol · l^−1 BAP = 100%] [3]: 11 (±3) %
- activity (%) [10^−5 mol · l^−1 BAP = 100%] [4]: 19 (±8) %

SMILES: COc1ccc(CNc2ncnc3nc[nH]c23)c(OC)c1 [6-(2,4-dimethoxybenzylamino)purine]
- Activity (%) [10^−4 mol · l^−1 BAP = 100%] [1]: 26 (±11) %
- Activity (%) [10^−4 mol · l^−1 BAP = 100%] [3]: 21 (±5) %
- activity (%) [10^−5 mol · l^−1 BAP = 100%] [4]: 12 (±2) %

SMILES: Brc1ccccc1CNc1ncnc2nc[nH]c12 [6-(2-bromobenzylamino)purine]
- Activity (%) [10^−4 mol · l^−1 BAP = 100%] [1]: 52 (±14) %
- Activity (%) [10^−4 mol · l^−1 BAP = 100%] [3]: 102 (±5) %
- activity (%) [10^−5 mol · l^−1 BAP = 100%] [4]: 94 (±6) %

SMILES: COc1cc(CNc2ncnc3nc[nH]c23)cc(OC)c1OC [6-(3,4,5-trimethoxybenzylamino)purine]
- Activity (%) [10^−4 mol · l^−1 BAP = 100%] [1]: 25 (±2) %
- Activity (%) [10^−4 mol · l^−1 BAP = 100%] [3]: 19 (±3) %
- activity (%) [10^−5 mol · l^−1 BAP = 100%] [4]: 2 (±2) %

SMILES: COc1ccc(CNc2ncnc3nc[nH]c23)cc1OC [6-(3,4-dimethoxybenzylamino)purine]
- Activity (%) [10^−4 mol · l^−1 BAP = 100%] [1]: 43 (±17) %
- activity (%) [10^−5 mol · l^−1 BAP = 100%] [4]: 27 (±6) %

SMILES: c1ccc(Nc2ncnc3nc[nH]c23)cc1 [Anilino, 6-anilinopurine]
- SENESCENT CELLS (%) HCA25 [2]: 3%
- SENESCENT CELLS (%) HCA45 [2]: 4%
- SENESCENT CELLS (%) HCA80 [2]: 27%
